Publication PMC7377239, “Cardiovascular Effects of Polychlorinated Biphenyls and Their Major Metabolites” (Environmental Health Perspectives, 2020)
Counter-ions that a name gives are not always drawn. Like-named read-outs stand apart in the source and are kept apart here.

Experiments:
[1] = tested on: iCell cardiomyocytes (human iPSC-derived cardiomyocytes); experiment: High-content imaging of cytotoxicity and mitochondrial integrity in iPSC-CMs; type: cell-based; settings: Homo sapiens; for viability at 0.01 µM / activity at 0.01 µM / viability at 0.1 µM / activity at 0.1 µM / viability at 1 µM / activity at 1 µM / viability at 10 µM / activity at 10 µM / viability at 100 µM / activity at 100 µM: Cardiomyocyte, 0.00 µM = 100.00; for viability at 0.1 µM / activity at 0.1 µM: 0.10 µM; for minimal effective concentration: iPSC-CM
Procedure, shortened: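 Readouts from high-content images were normalized to vehicle controls containing 0.5% vol/vol DMSO. They were fit to a four-parameter logistic model in R. Points of departure were set using a cutoff of one standard deviation across vehicle control means. Where no concentration–response was seen, the top tested concentration of 100μM was assigned as the no observable adverse effect level.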

[2] = tested on: HUVECs; experiment: High-content imaging cytotoxicity in HUVECs, 24 h; type: cell-based, human; settings: Homo sapiens, HUVEC, 24 h, HUVECs; for viability at 0.01 µM / activity at 0.01 µM / viability at 0.1 µM / activity at 0.1 µM / viability at 1 µM / activity at 1 µM / viability at 10 µM / activity at 10 µM / viability at 100 µM / activity at 100 µM: 0.00 µM = 100.00; for viability at 0.1 µM / activity at 0.1 µM: 0.10 µM; for minimal effective concentration: top concentration 100.00 µM
Procedure, shortened: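 HUVECs (passages 1–5) grown to monolayer over 3–5 d, then exposed 24 h at 37°C, 5% CO2; stained with Hoechst 33342, MitoTracker Orange and calcein AM and imaged at 10×. Readouts normalized to 0.5% DMSO vehicle, four-parameter logistic fit; POD at one-SD cutoff, 100μM assigned when no response.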

[3] = 24 hr, read-out: huvec.cyto.24hr
[4] = 24 hr, read-out: huvec.mito.24hr
[5] = 24 hr, read-out: huvec.mitoint.24hr
[6] = 24 hr, read-out: huvec.nma.24hr
[7] = 24 hrs, read-out: huvec.tc.24hrs

O=S(=O)(O)Oc1cc(Cl)ccc1-c1ccccc1 [2-yl PCB 3 sulfate]
viability at 0.01 µM ([1]; 1.5 h, read-out: cm.cam.90min): 88.1% | activity at 0.01 µM ([1]; 1.5 h, read-out: cm.mii.90min): 116% | activity at 0.01 µM ([1]; 1.5 h, read-out: cm.mito.90min): 87.6% | viability at 0.01 µM ([1]; 1.5 h, read-out: cm.tc.90min): 88.3% | viability at 0.1 µM ([1]; 1.5 h, read-out: cm.cam.90min): 98.3% | activity at 0.1 µM ([1]; 1.5 h, read-out: cm.mii.90min): 105% | activity at 0.1 µM ([1]; 1.5 h, read-out: cm.mito.90min): 98.4% | viability at 0.1 µM ([1]; 1.5 h, read-out: cm.tc.90min): 98.4% | viability at 1 µM ([1]; 1.5 h, read-out: cm.cam.90min): 105% | activity at 1 µM ([1]; 1.5 h, read-out: cm.mii.90min): 88.6% | activity at 1 µM ([1]; 1.5 h, read-out: cm.mito.90min): 105% | viability at 1 µM ([1]; 1.5 h, read-out: cm.tc.90min): 105% | viability at 10 µM ([1]; 1.5 h, read-out: cm.cam.90min): 100% | activity at 10 µM ([1]; 1.5 h, read-out: cm.mii.90min): 96.5% | activity at 10 µM ([1]; 1.5 h, read-out: cm.mito.90min): 101% | viability at 10 µM ([1]; 1.5 h, read-out: cm.tc.90min): 101% | viability at 100 µM ([1]; 1.5 h, read-out: cm.cam.90min): 104% | activity at 100 µM ([1]; 1.5 h, read-out: cm.mii.90min): 81% | activity at 100 µM ([1]; 1.5 h, read-out: cm.mito.90min): 105% | viability at 100 µM ([1]; 1.5 h, read-out: cm.tc.90min): 105% | viability at 0.01 µM ([1]; 24 h, read-out: cm.cam.24hrs): 99.2% | activity at 0.01 µM ([1]; 24 h, read-out: cm.mii.24hrs): 94.5% | activity at 0.01 µM ([1]; 24 h, read-out: cm.mito.24hrs): 100% | viability at 0.01 µM ([1]; 24 h, read-out: cm.tc.24hrs): 101% | viability at 0.1 µM ([1]; 24 h, read-out: cm.cam.24hrs): 101% | activity at 0.1 µM ([1]; 24 h, read-out: cm.mii.24hrs): 102% | activity at 0.1 µM ([1]; 24 h, read-out: cm.mito.24hrs): 101% | viability at 0.1 µM ([1]; 24 h, read-out: cm.tc.24hrs): 101% | viability at 1 µM ([1]; 24 h, read-out: cm.cam.24hrs): 101% | activity at 1 µM ([1]; 24 h, read-out: cm.mii.24hrs): 102% | activity at 1 µM ([1]; 24 h, read-out: cm.mito.24hrs): 103% | viability at 1 µM ([1]; 24 h, read-out: cm.tc.24hrs): 101% | viability at 10 µM ([1]; 24 h, read-out: cm.cam.24hrs): 102% | activity at 10 µM ([1]; 24 h, read-out: cm.mii.24hrs): 85.7% | activity at 10 µM ([1]; 24 h, read-out: cm.mito.24hrs): 102% | viability at 10 µM ([1]; 24 h, read-out: cm.tc.24hrs): 102% | viability at 100 µM ([1]; 24 h, read-out: cm.cam.24hrs): 98.3% | activity at 100 µM ([1]; 24 h, read-out: cm.mii.24hrs): 91.6% | activity at 100 µM ([1]; 24 h, read-out: cm.mito.24hrs): 99.6% | viability at 100 µM ([1]; 24 h, read-out: cm.tc.24hrs): 98.5% | minimal effective concentration ([1]; 1.5 h, read-out: cm.cam.90min POD): 100 µM | minimal effective concentration ([1]; 1.5 h, read-out: cm.mii.90min POD): 7.39 µM | minimal effective concentration ([1]; 1.5 h, read-out: cm.mito.90min POD): 100 µM | minimal effective concentration ([1]; 1.5 h, read-out: cm.tc.90min POD): 100 µM | minimal effective concentration ([1]; 24 h, read-out: cm.cam.24hrs POD): 100 µM | minimal effective concentration ([1]; 24 h, read-out: cm.mii.24hrs POD): 100 µM | minimal effective concentration ([1]; 24 h, read-out: cm.mito.24hrs POD): 100 µM | minimal effective concentration ([1]; 24 h, read-out: cm.tc.24hrs POD): 100 µM | viability at 0.01 µM [2, 3]: 95% | activity at 0.01 µM [2, 4]: 93.7% | activity at 0.01 µM [2, 5]: 96.9% | activity at 0.01 µM [2, 6]: 100% | viability at 0.1 µM [2, 3]: 105% | activity at 0.1 µM [2, 4]: 105% | activity at 0.1 µM [2, 5]: 103% | activity at 0.1 µM [2, 6]: 95.3% | viability at 1 µM [2, 3]: 95% | activity at 1 µM [2, 4]: 94.6% | activity at 1 µM [2, 5]: 92.6% | activity at 1 µM [2, 6]: 95.4% | viability at 10 µM [2, 3]: 83.5% | activity at 10 µM [2, 4]: 83.3% | activity at 10 µM [2, 5]: 97.9% | activity at 10 µM [2, 6]: 97.9% | viability at 100 µM [2, 3]: 93% | activity at 100 µM [2, 4]: 92.1% | activity at 100 µM [2, 5]: 93.3% | activity at 100 µM [2, 6]: 96% | minimal effective concentration ([2]; 24 hr, read-out: huvec.cyto.24hr POD): 100 µM | minimal effective concentration ([2]; 24 hr, read-out: huvec.mito.24hr POD): 100 µM | minimal effective concentration ([2]; 24 hr, read-out: huvec.mitoint.24hr POD): 100 µM | minimal effective concentration ([2]; 24 hr, read-out: huvec.nma.24hr POD): 100 µM | viability at 0.01 µM [2, 7]: 95% | viability at 0.1 µM [2, 7]: 105% | viability at 1 µM [2, 7]: 95% | viability at 10 µM [2, 7]: 83.5% | viability at 100 µM [2, 7]: 93% | minimal effective concentration ([2]; 24 hrs, read-out: huvec.tc.24hrs POD): 100 µM
